Test results reported in US20240366626A1, “OPHTHALMIC PREPARATION FOR MYOPIA SUPPRESSION” (TSUBOTA LABORATORY, INC., priority 2021, published 2024).
“Also recorded” adds a separate entry of the source. Where a name gives a salt, the structure may show the parent alone.

Tested on: mouse myopia model
Assay: Mouse myopia model (−30D lens on right eye, 0D on left), eye drops for three weeks; change in refractive index and axial length measured
Assay type: in vivo, mice (C57BL6/J)
Details: for myopia suppressing effect (overall conclusion): mouse myopia model, eye drops for three weeks; for change in refractive index / change in axial length: −30D lens eyes vs OD lens eyes after three weeks of eye drops, bunazosin two drops once or twice per day, unoprostone two drops once per day; for change in refractive index: infrared photorefractor; for change in axial length: spectral domain OCT
Method: The present inventors, with a focus on the fact that certain glaucoma ophthalmic preparations are effective in suppressing myopia progression, attempted to find myopia progression suppressing effects from existing glaucoma ophthalmic preparations. In the present application, glaucoma ophthalmic preparations were administered to a mouse myopia model, and an axial length and a refractive index were measured to evaluate whether the eye drops were effective in suppressing the progression of axial myopia.
Eye drops were continuously administered for three weeks, with phosphate buffered saline (PBS) eye drops as the control group and bunazosin eye drops as the test group. Bunazosin is the main ingredient of a Detantol ophthalmic solution, and bunazosin eye drops were administered using Detantol 0.01% ophthalmic solution (manufactured by Santen Pharmaceutical Co. Ltd., 1 mL contains 0.1 mg of bunazosin hydrochloride). The number of eye drops was two drops once per day and twice a day (two drops each in the morning and evening). The refractive index and the axial length of the mouse eyeball after three weeks were measured and the amounts of change were calculated.
The refractive values were measured by using an infrared photorefractor for mice (manufactured by Prof. Schaeffel, University of Tubingen). The axial lengths were measured by using spectral domain optical coherence tomography (Envisu R4310, manufactured by Leica).
Mice similar to those in Experiment 1 were used to induce myopia. Eye drops were continually administered for three weeks, with PBS eye drops as the control group and unoprostone eye drops as the test group. Unoprostone is the main ingredient of a Rescula ophthalmic solution, and unoprostone eye drops were administered (two drops once per day, per eye) with Rescula ophthalmic solution 0.12% (Nitto Medic Co., Ltd., 1 mL contains 1.2 mg of isopropyl unoprostone). The refractive index and the axial length of the mouse eyeball after three weeks were measured and the amounts of change were calculated. The refractive index measurement and the axial length measurement were the same as in Experiment 1.

[1] = two drops once per day vs twice a day, three weeks

CCCC(=O)N1CCCN(c2nc(N)c3cc(OC)c(OC)cc3n2)CC1 [bunazosin, bunazosin hydrochloride]
myopia suppressing effect (overall conclusion) (hydrochloride): exhibited a myopia-suppressing effect; also recorded: exhibits a myopia suppressing effect
comparison of dosing frequency (once vs twice per day), axial length [1]: no difference between one eye drop and two eye drops
comparison of dosing frequency (once vs twice per day), refractive index [1]: one eye drop has a greater myopia suppressing effect than two eye drops
change in refractive index: no significant difference between the eyes with the −30D lenses and the eyes with OD lenses
change in axial length: substantially no difference in the axial lengths between the two eyes

CCCCCCCC(=O)CC[C@@H]1[C@@H](C/C=C\CCCC(=O)OC(C)C)[C@@H](O)C[C@H]1O [unoprostone, isopropyl unoprostone]
myopia suppressing effect (overall conclusion): did not exhibit a myopia suppressing effect; also recorded: does not exhibit a myopia suppressing effect
change in refractive index: both eyes became myopic and no myopia suppressing effect of the eye drops was confirmed
change in axial length: no significant difference in the axial lengths of the two eyes was confirmed
